System: 171881-019-R-J1-PDC complex spheroid growth, % test/control
Assay: Anticancer human tumor 171881-019-R-J1-PDC patient-derived invasive breast carcinoma cell line growth inhibition [Asc]
Settings: for IC50: curve of first compound; for viability, T/C: stronger effect = lower value
In short: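 Concentration series start at each agent's clinical Cmax, or at 10 microM when none is established, and drop in half-log steps; agents are applied alone or together to complex spheroids built with HUVEC and hMSC.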

[1] = second compound 0.01 µM, first compound 0.0316 µM
[2] = second compound 0.01 µM, first compound 0.1 µM
[3] = second compound 0.01 µM, first compound 0.316 µM
[4] = second compound 0.01 µM, first compound 1 µM
[5] = second compound 0.0316 µM, first compound 0.0316 µM
[6] = second compound 0.0316 µM, first compound 0.1 µM
[7] = second compound 0.0316 µM, first compound 0.316 µM
[8] = second compound 0.0316 µM, first compound 1 µM
[9] = second compound 0.1 µM, first compound 0.0316 µM
[10] = second compound 0.1 µM, first compound 0.1 µM
[11] = second compound 0.1 µM, first compound 0.316 µM
[12] = second compound 0.1 µM, first compound 1 µM
[13] = second compound 0.316 µM, first compound 0.0316 µM
[14] = second compound 0.316 µM, first compound 0.1 µM
[15] = second compound 0.316 µM, first compound 0.316 µM
[16] = second compound 0.316 µM, first compound 1 µM
[17] = second compound 1 µM, first compound 0.0316 µM
[18] = second compound 1 µM, first compound 0.1 µM
[19] = second compound 1 µM, first compound 0.316 µM
[20] = second compound 1 µM, first compound 1 µM
[21] = second compound 0.01 µM, first compound 0.00316 µM
[22] = second compound 0.01 µM, first compound 0.01 µM
[23] = second compound 0.0316 µM, first compound 0.00316 µM
[24] = second compound 0.0316 µM, first compound 0.01 µM
[25] = second compound 0.1 µM, first compound 0.00316 µM
[26] = second compound 0.1 µM, first compound 0.01 µM
[27] = second compound 0.316 µM, first compound 0.00316 µM
[28] = second compound 0.316 µM, first compound 0.01 µM
[29] = second compound 1 µM, first compound 0.00316 µM
[30] = second compound 1 µM, first compound 0.01 µM
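For viability, T/C in this document: spheroids exposed to compounds for 7 days.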

C=CC(=O)N1CCN(c2nc(=O)n(-c3c(C)ccnc3C(C)C)c3nc(-c4c(O)cccc4F)c(F)cc23)C(C)C1 (stereo not given) + CNC(C)C(=O)NC1CN(S(=O)(=O)c2cccc(S(=O)(=O)N3CCC4CCC(C(=O)NC(c5ccccc5)c5ccccc5)N4C(=O)C(NC(=O)C(C)NC)C3)c2)CCC2CCC(C(=O)NC(c3ccccc3)c3ccccc3)N2C1=O
IC50 (second compound 0.01 µM): > 10000 nM | IC50 (second compound 0.0316 µM): > 10000 nM | IC50 (second compound 0.1 µM): > 10000 nM | IC50 (second compound 0.316 µM): > 10000 nM | IC50 (second compound 1 µM): > 10000 nM | viability, T/C [1]: 105% | viability, T/C [2]: 94.4% | viability, T/C [3]: 84.8% | viability, T/C [4]: 96% | viability, T/C (second compound 0.01 µM, first compound 3.16 µM): 95.7% | viability, T/C (second compound 0.01 µM, first compound 10 µM): 85.8% | viability, T/C [5]: 110% | viability, T/C [6]: 97.7% | viability, T/C [7]: 97.8% | viability, T/C [8]: 85.7% | viability, T/C (second compound 0.0316 µM, first compound 3.16 µM): 85.2% | viability, T/C (second compound 0.0316 µM, first compound 10 µM): 80.3% | viability, T/C [9]: 99.2% | viability, T/C [10]: 92.4% | viability, T/C [11]: 95.9% | viability, T/C [12]: 98.6% | viability, T/C (second compound 0.1 µM, first compound 3.16 µM): 96% | viability, T/C (second compound 0.1 µM, first compound 10 µM): 96.2% | viability, T/C [13]: 95.1% | viability, T/C [14]: 95.3% | viability, T/C [15]: 103% | viability, T/C [16]: 107% | viability, T/C (second compound 0.316 µM, first compound 3.16 µM): 94% | viability, T/C (second compound 0.316 µM, first compound 10 µM): 86.8% | viability, T/C [17]: 110% | viability, T/C [18]: 110% | viability, T/C [19]: 86% | viability, T/C [20]: 96.6% | viability, T/C (second compound 1 µM, first compound 3.16 µM): 96.2% | viability, T/C (second compound 1 µM, first compound 10 µM): 96.8%

COc1c(OCCCN2CCOCC2)ccc2c3n(c(=NC(=O)c4cnc(N)nc4)nc12)CCN3 + CNC(C)C(=O)NC1CN(S(=O)(=O)c2cccc(S(=O)(=O)N3CCC4CCC(C(=O)NC(c5ccccc5)c5ccccc5)N4C(=O)C(NC(=O)C(C)NC)C3)c2)CCC2CCC(C(=O)NC(c3ccccc3)c3ccccc3)N2C1=O
IC50 (second compound 0.01 µM): 32.4 nM | IC50 (second compound 0.0316 µM): 30.8 nM | IC50 (second compound 0.1 µM): 29.6 nM | IC50 (second compound 0.316 µM): 28.1 nM | IC50 (second compound 1 µM): 28.7 nM | viability, T/C [21]: 196% | viability, T/C [22]: 133% | viability, T/C [1]: 49.7% | viability, T/C [2]: 15.9% | viability, T/C [3]: 4.61% | viability, T/C [4]: 2.61% | viability, T/C [23]: 215% | viability, T/C [24]: 137% | viability, T/C [5]: 46.5% | viability, T/C [6]: 15.6% | viability, T/C [7]: 4.08% | viability, T/C [8]: 1.97% | viability, T/C [25]: 203% | viability, T/C [26]: 135% | viability, T/C [9]: 43.8% | viability, T/C [10]: 13.1% | viability, T/C [11]: 3.67% | viability, T/C [12]: 2.63% | viability, T/C [27]: 182% | viability, T/C [28]: 122% | viability, T/C [13]: 41% | viability, T/C [14]: 11.9% | viability, T/C [15]: 3.14% | viability, T/C [16]: 1.94% | viability, T/C [29]: 210% | viability, T/C [30]: 125% | viability, T/C [17]: 43.8% | viability, T/C [18]: 10.4% | viability, T/C [19]: 3.22% | viability, T/C [20]: 2.13%

NC1CCC(NC2CC2c2ccccc2)CC1 (stereo not given) + CNC(C)C(=O)NC1CN(S(=O)(=O)c2cccc(S(=O)(=O)N3CCC4CCC(C(=O)NC(c5ccccc5)c5ccccc5)N4C(=O)C(NC(=O)C(C)NC)C3)c2)CCC2CCC(C(=O)NC(c3ccccc3)c3ccccc3)N2C1=O
IC50 (second compound 0.01 µM): > 100 nM | IC50 (second compound 0.0316 µM): > 100 nM | IC50 (second compound 0.1 µM): > 100 nM | IC50 (second compound 0.316 µM): > 100 nM | IC50 (second compound 1 µM): > 100 nM | viability, T/C (second compound 0.01 µM, first compound 0.000316 µM): 94.2% | viability, T/C (second compound 0.01 µM, first compound 0.001 µM): 86.1% | viability, T/C [21]: 82.1% | viability, T/C [22]: 87.2% | viability, T/C [1]: 83.9% | viability, T/C [2]: 81% | viability, T/C (second compound 0.0316 µM, first compound 0.000316 µM): 89.9% | viability, T/C (second compound 0.0316 µM, first compound 0.001 µM): 91.5% | viability, T/C [23]: 100% | viability, T/C [24]: 84.9% | viability, T/C [5]: 79.5% | viability, T/C [6]: 79.9% | viability, T/C (second compound 0.1 µM, first compound 0.000316 µM): 103% | viability, T/C (second compound 0.1 µM, first compound 0.001 µM): 103% | viability, T/C [25]: 85.4% | viability, T/C [26]: 79.1% | viability, T/C [9]: 91.8% | viability, T/C [10]: 91.8% | viability, T/C (second compound 0.316 µM, first compound 0.000316 µM): 90.4% | viability, T/C (second compound 0.316 µM, first compound 0.001 µM): 86.9% | viability, T/C [27]: 84.2% | viability, T/C [28]: 95.9% | viability, T/C [13]: 85.3% | viability, T/C [14]: 81.2% | viability, T/C (second compound 1 µM, first compound 0.000316 µM): 91.5% | viability, T/C (second compound 1 µM, first compound 0.001 µM): 96.6% | viability, T/C [29]: 87.9% | viability, T/C [30]: 85.2% | viability, T/C [17]: 92.8% | viability, T/C [18]: 86%

— PubChem BioAssay AID1963428 (Molecular Pharmacology Branch, DTP, NCI, 2024)
